Measured values: patent US11957687B2 (REGENERON PHARMACEUTICALS, INC., priority 2019, dated 2024)

Key:
HSD17B2 = HSD17B2 (Homo sapiens (Human), UniProt P37059); assay: HSD17B2 enzymatic blocking assay; format: biochemical; conditions: 1.8 μM Estradiol, 650 μM NAD; read-out: Inhibition of HSD17B2 IC50
Outline: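 Mammalian-expressed enzyme at 2 ng/μL in 50 mM Tris-HCl pH 7.5 with detergents/BSA, preincubated 15 min at 20° C. with compound (10-point titration). Reaction with 1.8 μM estradiol and 650 μM NAD ran 45 min at 20° C.; NADH measured by NADH-Glo luminescence and IC50 derived.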

[1] = Microsome stability assay, human liver microsomes; format: in vitro ADME; conditions: 1 μM compound, 0.5 mg/mL microsomal protein; for microsomal CLint at 1 μM / half-life at 1 μM / microsomal CLint at 1 h, 1 µM / half-life at 1 h, 1 µM: human, human liver microsomes, pooled, NADPH, 37° C.; for microsomal CLint at 1 μM / microsomal CLint at 1 h, 1 µM: read-out: Microsome Stability Human liver microsomes Cl; for half-life at 1 μM / half-life at 1 h, 1 µM: read-out: Microsome Stability Human liver microsomes T½
Outline: (§1)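 Compound at 1 μM incubated at 37° C with pooled human or mouse liver microsomes (0.5 mg/mL protein) plus NADPH regenerating system, sampled at 0–60 min; a 60-min no-NADPH incubation also included. Single replicate; LC/MS/MS disappearance from analyte/internal standard peak area ratios, without standard curve.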

HSD17B13 = HSD17B13 (Homo sapiens (Human), UniProt Q7Z5P4); assay: HSD17B13 enzymatic inhibition assay (150 nM or 50 nM HSD17B13); format: biochemical; conditions: 50 nM HSD17B13; read-out: Inhibition of 50 nM of HSD17B13 IC50
[2] = Microsome stability assay, mouse liver microsomes; format: in vitro ADME; conditions: 1 μM compound, 0.5 mg/mL microsomal protein; for microsomal CLint at 1 μM / half-life at 1 μM / microsomal CLint at 1 h, 1 µM / half-life at 1 h, 1 µM: mouse, mouse liver microsomes, pooled, NADPH, 37° C.; for microsomal CLint at 1 μM / microsomal CLint at 1 h, 1 µM: read-out: Microsome Stability Mouse liver microsomes Cl; for half-life at 1 μM / half-life at 1 h, 1 µM: read-out: Microsome Stability Mouse liver microsomes T½
Outline: as §1

HSD17B1 = HSD17B1 (Homo sapiens (Human), UniProt P14061); assay: HSD17B1 enzymatic blocking assay; format: biochemical; conditions: 25 μM Estradiol, 500 μM NAD; read-out: Inhibition of HSD17B1 IC50
Outline: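 Activity followed as NADH formed on estradiol oxidation, read by NADH-Glo luminescence after 1 h detection in the dark at room temperature. Compounds preincubated with enzyme 30 min at room temperature; 0.5% DMSO and no-substrate controls. IC50 fitted from luminescence.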

HSD17B4 = HSD17B4 (Homo sapiens (Human), UniProt P51659); assay: HSD17B4 enzymatic blocking assay; format: biochemical; conditions: 23.46 μM Estradiol, 1500 μM NAD; read-out: Inhibition of HSD17B4 IC50
Procedure: To screen compounds of the disclosure for their ability to block HSD17B4 function, an enzymatic blocking assay was performed. For the assay, HSD17B4 activity was measured by detecting NADH formation from oxidation of Estradiol using a NADH Glo luminescence assay (Promega, #Cat. No. G9062). Compounds of the disclosure were evaluated in a dose titration assay where the compounds were titrated at 10-point dose curve using an Echo-555 liquid handling dispenser. HSD17B4 (SEQ ID NO: 4, expressed in mammalian cells) was added at a final concentration of 2.5 ng/μL in a buffer containing 50 mM Tris-HCl, pH 7.5, Pluronic F-127 0.05%, Tween20 0.01%, BSA 0.01%, into a low volume white 384-well assay plate. Compounds were incubated with the enzyme for 15 min at 20° C. The assay reaction was then initiated by addition of 23.46 μM Estradiol substrate (Sigma, catalog #E2758-250MG, CAS: 50-28-2) and 1500 μM NAD co-factor, and the reaction mixture was incubated for 45 min at 20° C. DMSO at a concentration of 0.5% was used as a negative control and a ‘no substrate’ control was used a positive control in the assay. Detection reagent was then added as per manufacturer's instructions, and the plate was subsequently incubated in the dark for 1 hour at room temperature, NADH generated was detected in the luminescence mode on the Envision Perkin Elmer plate reader. The IC50 values were determined using Dotmatics analysis software.

HSD17B10 = HSD17B10 (Homo sapiens (Human), UniProt Q99714); assay: HSD17B10 enzymatic blocking assay; format: biochemical; conditions: 25 μM Estradiol, 500 μM NAD; read-out: Inhibition of HSD17B10 IC50
Procedure: To screen compounds of the disclosure for their ability to block HSD17B10 function, an enzymatic blocking assay was performed. For the assay, HSD17B10 activity was measured by detecting NADH formation from oxidation of Estradiol using a NADH Glo luminescence assay (Promega, #Cat. No. G9062). Compounds of the disclosure were evaluated in a dose titration assay where the compounds were titrated at 10-point dose curve using an Echo-555 liquid handling dispenser. HSD17B10 (Seq. ID NO: 5, expressed in mammalian cells) was added at a final concentration of 31.25 ng/well in a buffer containing 0.2M Tris-HCl, pH 7.5, into a low volume white 384-well assay plate. Compounds were incubated with the enzyme for 30 minutes at room temperature. The assay reaction was then initiated by addition of 25 μM Estradiol substrate (Sigma, catalog #E2758-250MG, CAS: 50-28-2) and 500 μM NAD co-factor, and the reaction mixture was incubated for 3 hours at room temperature. DMSO at a concentration of 0.5% was used as a negative control and a ‘no substrate’ control was used a positive control in the assay. Detection reagent was then added as per manufacturer's instructions, and the plate was subsequently incubated in the dark for 1 hour at room temperature, NADH generated was detected in the luminescence mode on the Envision Perkin Elmer plate reader. The IC50 values were determined using Dotmatics analysis software.

Chain of HSD17B13 (Q7Z5P4 other isoform, or with tags, fused parts or gaps): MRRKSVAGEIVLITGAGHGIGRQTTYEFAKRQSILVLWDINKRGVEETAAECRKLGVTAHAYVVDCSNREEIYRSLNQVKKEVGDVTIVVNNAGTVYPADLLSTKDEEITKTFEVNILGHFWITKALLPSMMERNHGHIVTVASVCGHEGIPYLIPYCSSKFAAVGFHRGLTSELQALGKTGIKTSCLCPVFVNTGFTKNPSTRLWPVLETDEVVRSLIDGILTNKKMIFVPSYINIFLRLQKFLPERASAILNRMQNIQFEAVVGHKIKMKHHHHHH
Chain of HSD17B2 (P37059 other isoform, or with tags, fused parts or gaps): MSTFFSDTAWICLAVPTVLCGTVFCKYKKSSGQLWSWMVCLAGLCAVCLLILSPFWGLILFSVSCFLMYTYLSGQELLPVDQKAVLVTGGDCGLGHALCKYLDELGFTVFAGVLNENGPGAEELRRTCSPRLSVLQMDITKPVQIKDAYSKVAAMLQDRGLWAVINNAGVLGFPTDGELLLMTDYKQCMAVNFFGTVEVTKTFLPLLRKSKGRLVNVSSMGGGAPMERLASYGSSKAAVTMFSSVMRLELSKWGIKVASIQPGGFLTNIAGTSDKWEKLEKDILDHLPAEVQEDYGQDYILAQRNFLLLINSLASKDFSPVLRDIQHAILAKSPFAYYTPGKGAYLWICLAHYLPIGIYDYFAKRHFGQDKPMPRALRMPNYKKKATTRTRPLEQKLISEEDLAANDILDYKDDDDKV
Chain of HSD17B4 (P51659 other isoform, or with tags, fused parts or gaps): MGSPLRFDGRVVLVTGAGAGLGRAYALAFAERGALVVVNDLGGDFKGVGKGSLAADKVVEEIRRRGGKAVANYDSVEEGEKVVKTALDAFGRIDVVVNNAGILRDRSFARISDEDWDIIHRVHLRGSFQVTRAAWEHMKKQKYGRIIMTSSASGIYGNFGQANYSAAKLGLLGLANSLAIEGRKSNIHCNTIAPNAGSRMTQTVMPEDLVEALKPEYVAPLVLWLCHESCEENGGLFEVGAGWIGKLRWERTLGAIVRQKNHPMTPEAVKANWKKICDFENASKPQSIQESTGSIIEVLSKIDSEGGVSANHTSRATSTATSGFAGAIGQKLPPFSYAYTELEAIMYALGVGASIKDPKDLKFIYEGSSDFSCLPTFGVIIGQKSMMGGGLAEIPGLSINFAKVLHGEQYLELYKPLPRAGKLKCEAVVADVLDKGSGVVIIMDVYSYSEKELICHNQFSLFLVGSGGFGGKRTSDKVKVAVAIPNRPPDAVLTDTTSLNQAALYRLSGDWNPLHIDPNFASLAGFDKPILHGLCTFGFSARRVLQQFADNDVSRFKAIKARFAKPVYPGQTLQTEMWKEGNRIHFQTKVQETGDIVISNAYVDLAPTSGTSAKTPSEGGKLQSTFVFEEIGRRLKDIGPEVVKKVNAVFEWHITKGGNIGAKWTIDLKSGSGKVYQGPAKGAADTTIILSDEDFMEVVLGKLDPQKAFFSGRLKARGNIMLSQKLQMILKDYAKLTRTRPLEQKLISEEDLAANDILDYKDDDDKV
Chain of HSD17B1 (P14061 other isoform, or with tags, fused parts or gaps): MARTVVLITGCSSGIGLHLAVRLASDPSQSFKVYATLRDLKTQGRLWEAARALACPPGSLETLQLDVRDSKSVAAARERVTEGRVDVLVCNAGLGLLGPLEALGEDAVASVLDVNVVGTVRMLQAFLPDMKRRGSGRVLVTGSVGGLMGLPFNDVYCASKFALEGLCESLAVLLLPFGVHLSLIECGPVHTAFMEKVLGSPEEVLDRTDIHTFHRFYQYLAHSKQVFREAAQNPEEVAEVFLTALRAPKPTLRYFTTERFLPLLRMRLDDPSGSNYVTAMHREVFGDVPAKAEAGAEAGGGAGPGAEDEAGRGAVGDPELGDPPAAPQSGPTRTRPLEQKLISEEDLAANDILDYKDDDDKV
Chain of HSD17B10 (Q99714 other isoform, or with tags, fused parts or gaps): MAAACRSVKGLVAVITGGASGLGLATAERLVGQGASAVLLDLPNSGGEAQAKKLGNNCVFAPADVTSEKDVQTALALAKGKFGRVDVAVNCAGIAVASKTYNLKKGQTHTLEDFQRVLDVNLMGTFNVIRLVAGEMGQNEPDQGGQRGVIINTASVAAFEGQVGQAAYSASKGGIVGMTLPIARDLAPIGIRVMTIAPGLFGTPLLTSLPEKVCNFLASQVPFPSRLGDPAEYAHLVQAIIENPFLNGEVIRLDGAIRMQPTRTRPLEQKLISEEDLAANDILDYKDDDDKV

SMILES	IC50 (HSD17B2)	Microsome Stability Human liver microsomes % Remaining @60 min [1]	microsomal CLint at 1 μM [1]	half-life at 1 μM [1]	IC50 (HSD17B13)	Microsome Stability Mouse liver microsomes % Remaining @60 min [2]	microsomal CLint at 1 μM [2]	half-life at 1 μM [2]	IC50 (HSD17B1)	IC50 (HSD17B4)	IC50 (HSD17B10)	microsomal CLint at 1 h, 1 µM [1]	half-life at 1 h, 1 µM [1]	microsomal CLint at 1 h, 1 µM [2]	half-life at 1 h, 1 µM [2]
O=C(NC1c2ccc(Cl)cc2Oc2cc(Cl)ccc21)c1ccc(C(F)(F)F)[nH]c1=O [Compound 50, N-(3,6-dichloro-9H-xanthen-9-yl)-2-oxo-6-(trifluoromethyl)-1,2-dihydropyridine-3-carboxamide]	5.16 µM	101.00%	< 9.6 µL/min/mg	> 2.42 h	0.12 µM	97.70%	< 9.6 µL/min/mg	> 2.42 h	4.22 µM	> 100 µM	> 30 µM	–	–	–	–
O=C(NC1c2ccc(Cl)cc2Oc2cccc(Cl)c21)c1ccc(C(F)(F)F)[nH]c1=O (stereo not shown) [Compound 51, N-(1,6-dichloro-9H-xanthen-9-yl)-2-oxo-6-(trifluoromethyl)-1,2-dihydropyridine-3-carboxamide]	8.71 µM	44.00%	–	–	0.23 µM	73.50%	–	–	4.55 µM	> 100 µM	> 30 µM	23 µL/min/mg	1 h	10.4 µL/min/mg	2.22 h
Cc1ccc2c(c1)Oc1cc(C)ccc1C2NC(=O)c1ccc(C(F)(F)F)[nH]c1=O [Compound 52, N-(3,6-dimethyl-9H-xanthen-9-yl)-2-oxo-6-(trifluoromethyl)-1,2-dihydropyridine-3-carboxamide]	8.69 µM	110.00%	< 9.6 µL/min/mg	> 2.42 h	0.08 µM	125.00%	< 9.6 µL/min/mg	> 2.42 h	5.84 µM	> 100 µM	> 30 µM	–	–	–	–
Cc1ccc2c(c1)Oc1cc(Cl)ccc1C2NC(=O)c1ccc(C(F)(F)F)[nH]c1=O (stereo not shown) [Compound 138, N-(3-chloro-6-methyl-9H-xanthen-9-yl)-2-oxo-6-(trifluoromethyl)-1,2-dihydropyridine-3-carboxamide]	16.1 µM	72.40%	–	–	0.02 µM	97.40%	< 9.6 µL/min/mg	> 2.42 h	2.07 µM	> 100 µM	> 30 µM	17.8 µL/min/mg	1.3 h	–	–
Cc1ccc2c(c1)Oc1cccc(Cl)c1C2NC(=O)c1ccc(C(F)(F)F)[nH]c1=O (stereo not shown) [Compound 190, N-(1-chloro-6-methyl-9H-xanthen-9-yl)-2-oxo-6-(trifluoromethyl)-1,2-dihydropyridine-3-carboxamide]	8.71 µM	0.62%	–	–	0.09 µM	59.10%	–	–	3.2 µM	84.5 µM	> 30 µM	172 µL/min/mg	0.135 h	17.4 µL/min/mg	1.33 h
